Measurements reported in publication PMC8138958 (ACS infectious diseases, 2021).
Converted amounts (≈) assume the structure as drawn. Where two headings read alike, the source gives them in different places. Marks after values point to notes of the source that are not given here. Where a SMILES comes first, the peptide text is derived from it. Bridges are numbered along the chain shown (N, C = ends). [ ]: non-standard residue; d: D form. The star is where a group is joined. X2 = NC[C@@H](CC(=O)*)c1cccc(Cl)c1; Dab = NCC[C@H](N)C(=O)O; Dap = NC[C@H](N)C(=O)O

Assays:
P.aeruginosa IHMA517175 = assay type: cell-based, Pseudomonas aeruginosa; conditions: compound alone; reduced susceptibility to polymyxins
P.aeruginosa ATCC 27853 = assay type: cell-based, Pseudomonas aeruginosa; conditions: compound alone; polymyxin-susceptible strain
[1] = Plasma exposure in the renal toxicity study; assay type: in vivo; conditions: mouse, 25 mg/kg dose level
E.coli ATCC 25922 = assay type: cell-based, Escherichia coli; conditions: compound alone; polymyxin-susceptible strain
P.aeruginosa IHMA644636 = assay type: cell-based, Pseudomonas aeruginosa; conditions: compound alone; reduced susceptibility to polymyxins
[2] = In vivo nephrotoxicity, kidney histopathology and urinary biomarkers; parameters: species or system male CD-1 mice
A.baumannii IHMA 851735 = test: MIC by broth microdilution; assay type: cell-based, Acinetobacter baumannii; conditions: compound alone; reduced susceptibility to polymyxins
A. baumannii NCTC13301 = test: Neutropenic mouse thigh efficacy model; assay type: in vivo, Acinetobacter baumannii; conditions: same conditions (20mg/kg)
K.pneumoniae IHMA652780 = test: MIC by broth microdilution; assay type: cell-based, Klebsiella pneumoniae; conditions: compound alone; reduced susceptibility to polymyxins
K.pneumonia ATCC 13882 = assay type: cell-based, Klebsiella pneumoniae; conditions: compound alone; polymyxin-susceptible strain
A.baumannii IHMA 517303 = assay type: cell-based, Acinetobacter baumannii; conditions: compound alone; reduced susceptibility to polymyxins
E.coli IHMA940398 = assay type: cell-based, Escherichia coli; conditions: compound alone; reduced susceptibility to polymyxins
K.pneumoniae IHMA520329 = assay type: cell-based, Klebsiella pneumoniae; conditions: compound alone; reduced susceptibility to polymyxins
A.baumannii BAA-747 = assay type: cell-based, Acinetobacter baumannii; conditions: compound alone; polymyxin-susceptible strain
K. pneumoniae IHMA580884 = assay type: cell-based, Klebsiella pneumoniae; conditions: compound alone; reduced susceptibility to polymyxins
A.baumannii NCTC 13301 = assay type: cell-based, Acinetobacter baumannii; conditions: compound alone, polymyxin-susceptible strain
E. coli IHMA558090 = assay type: cell-based, Escherichia coli; conditions: compound alone; reduced susceptibility to polymyxins
[3] = Cynomolgus monkey; cited from earlier work
[4] = Determination of kidney drug levels; assay type: in vivo; conditions: mouse, single 17.2 mg/kg subcutaneous dose, period 4-16 hr
[5] = mouse; cited from earlier work

Polymyxin B [1 (PMB)]
MIC P.aeruginosa IHMA517175 (P.aeruginosa IHMA517175): 8 µg/mL
MIC P.aeruginosa ATCC 27853 (P.aeruginosa ATCC 27853): 0.5 µg/mL
plasma AUCinf [1]: 57000 ng·h/mL
MIC E.coli ATCC 25922 (E.coli ATCC 25922): 0.25 µg/mL
MIC P.aeruginosa IHMA644636 (P.aeruginosa IHMA644636): 32 µg/mL
Histopathology score – number of animals Normal ([2]; 12.5 mg/kg, 24hr, n = 5): 5
Histopathology score – number of animals Minimal ([2]; 12.5 mg/kg, 4 days, n = 5): 1
Histopathology score – number of animals Normal ([2]; 12.5 mg/kg, 4 days, n = 5): 4
Histopathology score – number of animals Mild ([2]; 25 mg/kg, 24hr, n = 5): 2
Histopathology score – number of animals Minimal ([2]; 25 mg/kg, 24hr, n = 5): 2
Histopathology score – number of animals Moderate ([2]; 25 mg/kg, 24hr, n = 5): 1 ^*
Histopathology score – number of animals Minimal ([2]; 25 mg/kg, 4 days, n = 5): 2
kidney histopathology ([2]; mouse, 25 mg/kg sc three times per day, 24 hr and 4 day studies): significant histopathology changes in the kidneys
MIC A.baumannii IHMA 851735 (A.baumannii IHMA 851735): 4 µg/mL
drop in colony forming units (CFU) from the pre-treatment level (A. baumannii NCTC13301): greater than 2 log10
MIC K.pneumoniae IHMA652780 (K.pneumoniae IHMA652780): 4 µg/mL
MIC K.pneumonia ATCC 13882 (K.pneumonia ATCC 13882): 0.25 µg/mL
MIC A.baumannii IHMA 517303 (A.baumannii IHMA 517303): >64 µg/mL
MIC E.coli IHMA940398 (E.coli IHMA940398): 16 µg/mL
MIC K.pneumoniae IHMA520329 (K.pneumoniae IHMA520329): 64 µg/mL
MIC A.baumannii BAA-747 (A.baumannii BAA-747): 0.25 µg/mL
MIC K. pneumoniae IHMA580884 (K. pneumoniae IHMA580884): 8 µg/mL
MIC A.baumannii NCTC 13301 (A.baumannii NCTC 13301): 0.25 µg/mL
MIC A.baumannii NCTC 13301 (A.baumannii NCTC 13301; listed as PMB): 0.25 µg/mL
MIC E. coli IHMA558090 (E. coli IHMA558090): 4 µg/mL

Colistin [2 (Colistin)]
MIC P.aeruginosa IHMA517175 (P.aeruginosa IHMA517175): 64 µg/mL
MIC P.aeruginosa ATCC 27853 (P.aeruginosa ATCC 27853): 1 µg/mL
MIC E.coli ATCC 25922 (E.coli ATCC 25922): 0.25 µg/mL
MIC P.aeruginosa IHMA644636 (P.aeruginosa IHMA644636): 32 µg/mL
MIC K.pneumonia ATCC 13882 (K.pneumonia ATCC 13882): 0.25 µg/mL
MIC A.baumannii IHMA 517303 (A.baumannii IHMA 517303): >64 µg/mL
MIC E.coli IHMA940398 (E.coli IHMA940398): 16 µg/mL
MIC K.pneumoniae IHMA520329 (K.pneumoniae IHMA520329): >64 µg/mL
MIC A.baumannii BAA-747 (A.baumannii BAA-747): 0.25 µg/mL
MIC K. pneumoniae IHMA580884 (K. pneumoniae IHMA580884): 16 µg/mL
MIC A.baumannii NCTC 13301 (A.baumannii NCTC 13301): 0.5 µg/mL
MIC E. coli IHMA558090 (E. coli IHMA558090): 4 µg/mL

CC(C)C[C@@H]1NC(=O)[C@@H](Cc2ccccc2)NC(=O)[C@H](CCN)NC(=O)[C@@H](NC(=O)[C@H](CN)NC(=O)[C@@H](NC(=O)C[C@H](CN)c2cccc(Cl)c2)[C@@H](C)O)CCNC(=O)[C@H]([C@@H](C)O)NC(=O)[C@H](CCN)NC(=O)[C@H](CCN)NC1=O [Compound 26, SPR206] (X2-T[Dap][Dab][Dab][dF]L[Dab][Dab]T; lactam 3-C (inferred))
MIC P.aeruginosa IHMA517175 (P.aeruginosa IHMA517175): 8 µg/mL (≈ 6.99 µM)
MIC P.aeruginosa ATCC 27853 (P.aeruginosa ATCC 27853): 0.25 µg/mL (≈ 0.218 µM)
MIC E.coli ATCC 25922 (E.coli ATCC 25922): 0.125 µg/mL (≈ 0.109 µM)
MIC P.aeruginosa IHMA644636 (P.aeruginosa IHMA644636): 32 µg/mL (≈ 28 µM)
renal toxicity compared to PMB [3]: significantly reduced renal toxicity compared to PMB
MIC K.pneumonia ATCC 13882 (K.pneumonia ATCC 13882): 0.125 µg/mL (≈ 0.109 µM)
AUC in renal tissue [4]: 850 µg·h/g
MIC A.baumannii IHMA 517303 (A.baumannii IHMA 517303): >64 µg/mL
MIC E.coli IHMA940398 (E.coli IHMA940398): 32 µg/mL (≈ 28 µM)
MIC K.pneumoniae IHMA520329 (K.pneumoniae IHMA520329): 64 µg/mL (≈ 55.9 µM)
MIC A.baumannii BAA-747 (A.baumannii BAA-747): 0.125 µg/mL (≈ 0.109 µM)
MIC K. pneumoniae IHMA580884 (K. pneumoniae IHMA580884): 16 µg/mL (≈ 14 µM)
MIC A.baumannii NCTC 13301 (A.baumannii NCTC 13301): 0.06 µg/mL (≈ 0.0524 µM)
MIC E. coli IHMA558090 (E. coli IHMA558090): 8 µg/mL (≈ 6.99 µM)
renal toxicity compared to PMB [5]: significantly reduced renal toxicity compared to PMB
